The source made the active and inactive calls. No rule for the calls is given here.
What follows are compounds tested against Chaperone protein DnaK (Escherichia coli (strain K12)) (UniProt P0A6Y8) (assay: binders of DnaK substrate-binding domain, biophysical, NMR, chaperone (AID 1033)). Settings: Purified DnaK SBD, NMR ligand binding.
Sequence of Chaperone protein DnaK (Escherichia coli (strain K12)) (P0A6Y8 whole entry, looked up, the tested form may be a part): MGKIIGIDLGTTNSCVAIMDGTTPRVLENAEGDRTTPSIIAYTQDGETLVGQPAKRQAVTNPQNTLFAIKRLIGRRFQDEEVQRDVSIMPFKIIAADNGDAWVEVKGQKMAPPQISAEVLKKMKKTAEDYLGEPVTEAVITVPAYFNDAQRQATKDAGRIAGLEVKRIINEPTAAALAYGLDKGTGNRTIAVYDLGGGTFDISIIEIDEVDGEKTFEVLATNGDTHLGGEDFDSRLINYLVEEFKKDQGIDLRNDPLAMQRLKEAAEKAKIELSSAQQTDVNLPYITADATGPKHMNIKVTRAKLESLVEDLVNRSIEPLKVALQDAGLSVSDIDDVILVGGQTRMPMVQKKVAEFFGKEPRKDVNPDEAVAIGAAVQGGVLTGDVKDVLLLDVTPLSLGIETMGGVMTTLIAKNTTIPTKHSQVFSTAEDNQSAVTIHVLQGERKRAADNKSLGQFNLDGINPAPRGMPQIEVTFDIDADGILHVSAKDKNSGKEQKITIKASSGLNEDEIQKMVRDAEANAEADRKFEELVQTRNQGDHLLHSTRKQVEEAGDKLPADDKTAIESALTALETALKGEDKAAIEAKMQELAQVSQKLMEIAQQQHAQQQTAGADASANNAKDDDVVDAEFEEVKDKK

| SMILES | Kd |
| --- | --- |
| c1ccc(-c2nnc(CNCc3ccco3)o2)cc1 | > 4 mM (inactive) |
| CC(C)NC(=O)c1cc(=O)n(C)c(=O)n1C | > 4 mM (inactive) |
| NC(=O)c1ccc(SCC(=O)O)c([N+](=O)[O-])c1 | > 4 mM (inactive) |
| CN(C)C(=O)C12CCC(C)(C(=O)O1)C2(C)C (stereo not drawn) | > 4 mM (inactive) |
| S=c1[nH]c2cccnc2[nH]1 | > 4 mM (inactive) |
| Nc1cc(=O)[nH]c(=S)n1CCc1ccccc1 | > 4 mM (inactive) |
| O=C(Nc1ccc2c(c1)OCO2)c1cnn2cccnc12 | > 4 mM (inactive) |
| CC(=O)Oc1ccc(/C=C/c2cc(OC(C)=O)cc(OC(C)=O)c2)cc1 | > 4 mM (inactive) |
| c1ccc(CCN2CCN(CCc3ccccn3)CC2)nc1 | > 4 mM (inactive) |
| Cc1cc(C(=O)Nc2nnc(C(F)(F)F)s2)no1 | > 4 mM (inactive) |
| CC(=O)OC[C@H]1O[C@@H](Oc2cc(OC(C)=O)c3c(=O)cc(-c4ccc(OC(C)=O)cc4)oc3c2)[C@H](OC(C)=O)[C@@H](OC(C)=O)[C@@H]1OC(C)=O | > 4 mM (inactive) |
| COc1ccc(N/C(N)=N\c2nc(C)cc(C)n2)cc1 | > 4 mM (inactive) |
| OCC1CCCCCN1 (stereo not drawn) | > 4 mM (inactive) |
| Cc1cc(N2CCN(C)CC2)ncn1 | > 4 mM (inactive) |
| OCc1snnc1-c1ccccc1 | > 4 mM (inactive) |
| COC(=O)c1cncn1C | > 4 mM (inactive) |
| CN(C)S(=O)(=O)c1cccc(N)c1 | > 4 mM (inactive) |
| CCOC(=O)C1C(=O)C2CCN1CC2 (stereo not drawn) | > 4 mM (inactive) |
| COc1ccc(-c2oc3ccccc3c(=O)c2O)cc1OC | > 4 mM (inactive) |
| O=C(O)c1coc2c1C(=O)CCC2 | > 4 mM (inactive) |
| O=C(O)CCCC(=O)Nc1nccs1 | > 4 mM (inactive) |

| SMILES | Kd |
| --- | --- |
| Cn1cc(Cl)c(C(=O)Nc2ccncc2)n1 | > 4 mM (inactive) |
| CCOC(=O)c1c(C)nc2ccccn12 | > 4 mM (inactive) |
| Cn1c(CSc2nc3ccccc3s2)n[nH]c1=S | > 4 mM (inactive) |
| O=C(O)c1ccc2nsnc2c1 | > 4 mM (inactive) |
| Nc1cccc(-c2cnco2)c1 | > 4 mM (inactive) |
| CC1(C)Cc2nc3[nH]c(=S)[nH]c(=O)c3cc2CO1 | > 4 mM (inactive) |
| O=C(O)C1CC(=O)N(Cc2ccco2)C1 (stereo not drawn) | > 4 mM (inactive) |
| CC1(C)C(=O)C=C[C@@]2(C)C1C[C@@H](O)[C@]1(C)C2CC[C@@]2(C)[C@H](c3ccoc3)OC(=O)[C@H]3O[C@]321 (stereo partly drawn) | > 4 mM (inactive) |
| O=C(Nc1ccon1)c1csc2ccccc12 | > 4 mM (inactive) |
| COc1cc(OC)c(-c2c(OC)cc(OC)cc2OC)c(OC)c1 | > 4 mM (inactive) |
| Cn1c(=O)n(CC(=O)Nc2cccnc2)c2ccccc21 | > 4 mM (inactive) |
| Cc1nc(NCc2ccco2)nc2c1C(=O)CC(C)C2 (stereo not drawn) | > 4 mM (inactive) |
| O=C(O)/C=C/c1ccc(O)c(O)c1 | > 4 mM (inactive) |
| Nc1ncc2[nH]cnc2n1 | > 4 mM (inactive) |
| COc1cc2c(cc1OC)Cc1cc(OC)c(OC)cc1Cc1cc(OC)c(OC)cc1C2 | > 4 mM (inactive) |
| O=c1[nH]cc(S(=O)(=O)N2CCc3ccccc32)c(=O)[nH]1 | > 4 mM (inactive) |
| CC(C)(O)[C@@H]1[C@H]2OC(=O)[C@@H]1[C@]1(O)C[C@H]3O[C@]34C(=O)O[C@H]2[C@]14C | > 4 mM (inactive) |
| CC1=NN2C(=N)/C(=C\c3cccs3)C(=O)N=C2S1 | > 4 mM (inactive) |
| CC(C)NC(=S)NCc1cnn(C)c1 | > 4 mM (inactive) |
| Cc1cc(=O)n(CCc2ccccc2)c(O)c1C#N | > 4 mM (inactive) |
| O=S(=O)(O)c1nc2ccccc2[nH]1 | > 4 mM (inactive) |

| SMILES | Kd |
| --- | --- |
| NS(=O)(=O)c1ccc(F)cc1 | > 4 mM (inactive) |
| Cc1c(C(=O)OC(C)C)[nH]c2c1C(=O)CCC2 | > 4 mM (inactive) |
| COc1ccccc1NC(=O)c1cc[n+]([O-])cc1 | > 4 mM (inactive) |
| CN(C)c1nc(N)nc(-c2nc3ccccc3s2)n1 | > 4 mM (inactive) |
| N/C(=N/S(=O)(=O)c1cccs1)c1ccccc1 | > 4 mM (inactive) |
| O=C(O)CNC(=O)c1ccccc1Cl | > 4 mM (inactive) |
| O=C1CCC(=O)N1c1cccc([N+](=O)[O-])c1 | > 4 mM (inactive) |
| CN1C(=O)c2ccc(N=C3NC(=O)CS3)cc2C1=O | > 4 mM (inactive) |
| NCc1oc(-c2ccccc2)cc1C(=O)O | > 4 mM (inactive) |
| COc1c(C(=O)N2CCCC2)ccc2ccccc12 | > 4 mM (inactive) |
| CCCc1cc2c(c(NC(C)=O)n1)c(=O)oc1ccccc12 | > 4 mM (inactive) |
| CSc1ccccc1NC(=O)c1cnccn1 | > 4 mM (inactive) |
| O=C(O)c1ccc2nccnc2c1 | > 4 mM (inactive) |
| NC(CC(=O)O)C(=O)Nc1ccc(Cl)cc1 (stereo not drawn) | > 4 mM (inactive) |
| O=c1oc(-c2ccccc2)nc2c1cnn2-c1ccccc1 | > 4 mM (inactive) |
| CC(=O)c1ccc(Cc2cnc(N)s2)cc1 | > 4 mM (inactive) |
| COC(=O)c1noc(C)c1C(C)=O | > 4 mM (inactive) |
| CC(C)CCCC(C)C1CCC2C3=CC[C@H]4C[C@@H](O)CC[C@]4(C)C3CC[C@@]21C (stereo partly drawn) | > 4 mM (inactive) |
| CCCNC(=O)c1cnc2n(c1=O)CCS2 | > 4 mM (inactive) |
| C/C=C(\C)c1nnc(NC(=O)C(C)C)s1 | > 4 mM (inactive) |
| Cc1cn2c(-c3cccnc3)nnc2s1 | > 4 mM (inactive) |

| SMILES | Kd |
| --- | --- |
| CCOC(=O)CN1C(=O)c2ccccc2C1=O | > 4 mM (inactive) |
| Cn1ccc(NC(=S)Nc2cccc([N+](=O)[O-])c2)n1 | > 4 mM (inactive) |
| OC(CCl)c1ccc(-n2cncn2)cc1 (stereo not drawn) | > 4 mM (inactive) |
| CN(Cc1nc2ccccc2n1C)S(C)(=O)=O | > 4 mM (inactive) |
| O=C(Nc1ccccc1N1CCCC1)c1cccnc1 | > 4 mM (inactive) |
| O=C(NCc1ccccc1Cl)c1cnn2cccnc12 | > 4 mM (inactive) |
| COc1nc(C#N)c(N2CCOCC2)o1 | > 4 mM (inactive) |
| COc1cc2c(cc1OC)[C@@H]1C(=O)c3ccc(O)c(CC=C(C)C)c3O[C@@H]1CO2 | > 4 mM (inactive) |
| CC1(C)C2CC(=O)[C@]3(C)C(CC[C@@]4(C)[C@H](c5ccoc5)OC(=O)[C@H]5O[C@]543)[C@@]2(C)C(=O)C[C@H]1O (stereo partly drawn) | > 4 mM (inactive) |
| CC1(C)Cc2c(c(-c3ccco3)[nH]c(=O)c2C#N)CO1 | > 4 mM (inactive) |
| CC1(C)C(=O)C=C[C@@]2(C)C1=C(O)C(=O)[C@]1(C)C2CC[C@@]2(C)[C@H](c3ccoc3)C[C@H]3O[C@]321 (stereo partly drawn) | > 4 mM (inactive) |
| Nc1cc(C(=O)N2CCCC2)cc(C(=O)N2CCCC2)c1 | > 4 mM (inactive) |
| c1ccc2[nH]c(NCCN3CCOCC3)nc2c1 | > 4 mM (inactive) |
| CN(Cc1nc2ccccc2n1C)C(=O)c1cccs1 | > 4 mM (inactive) |
| Cn1cnc2cc(NC(=O)c3ccco3)ccc21 | > 4 mM (inactive) |
| CC1(C)CC[C@]2(C)CC[C@]3(C)C(=CCC4[C@@]5(C)CC[C@H](O)C(C)(C)C5CC[C@]43C)C2C1 (stereo partly drawn) | > 4 mM (inactive) |
| Cc1c(C(=O)Nc2ccncc2)oc2c1C(=O)CC(C)(C)C2 | > 4 mM (inactive) |
| O=C(O)CN1C(=O)c2ccc(C(=O)O)cc2C1=O | > 4 mM (inactive) |
| O=C(O)C1CN2CCC1CC2 (stereo not drawn) | > 4 mM (inactive) |
| Cc1ccc(C(=O)Nn2cnnc2)s1 | > 4 mM (inactive) |
